In article PMC6271423, “Synthesis and Biological Evaluation of New Pyridone-Annelated Isoindigos as Anti-Proliferative Agents” (Molecules, 2014):
One block for each compound: values may come before it.

What was measured:
[1] = system: K562 cells; test: MTT cell viability (antiproliferative) assay in K562 cells; format: cell-based, human; settings: for cytotoxicity / antiproliferative activity to K562 cells (in words): 0.0 to 30.0 µM, 24 h; for IC50: Homo sapiens
Procedure: The antiproliferative activities of the synthesized molecules were initially evaluated in human chronic […] leukemia cells K562. The effect of the six derivatives on the viability of K562 was assessed by an MTT assay as described in the methods. In all MTT tests performed, the known antiproliferative agent etoposide was used as a positive control to validate the accuracy of the assay.
Figure 2 The isoindigo compounds 3b and 3d inhibit the growth of K562 cells in a dose- and time-dependent manner. (A) K562 cells were treated with varying concentrations of compounds 3a to 3f (0.0 to 30.0 µM) for 24 h and the antiproliferative activity was analyzed by MTT assay as described in the methods. (B) K562 cells were incubated with 12.0 µM of either compound 3b or 3d for different periods of time (0 to 72 h) and cell viability was assessed by the MTT assay. The controls (in the presence or absence of the solvent vehicle DMSO) represent cells incubated under similar conditions in the absence of the test compound. The percentage of cell viability in each sample was expressed relative to untreated control, which was considered as a 100%. K562 cells were also treated with 4.0, 8.0 and 12.0 µM etoposide under similar conditions as positive controls. The results shown represent the mean ± SD of three independent trials.
Figure 3 The IC50 values of compounds 3b and 3d determined in K562 cells at different time points. K562 cells were treated with varying concentrations of compounds 3b or 3d (0.0 to 40.0 µM) for different periods of time (24, 48 and 72 h) and their antiproliferative activity was analyzed by MTT viability assay. The sigmoidal curves shown were obtained by plotting the percentages of viability (mean ± SD of three independent experiments, three replicates for each concentration in every experiment were used) versus logarithmic molar concentrations of the test compounds at the three different time points, and the IC50 value was determined using a non-linear regression analysis of GraphPad Prism 6 software.
The human chronic myelogenous leukemia K562 (ATCC® CCL-243^TM) and human acute monocytic leukemia THP-1 (ATCC® TIB-202^TM) suspension cells were maintained in RPMI-1640, while adherent HepG2 (human hepatocellular carcinoma, ATCC® HB-8065^TM), MCF7 (human breast adenocarcinoma, ATCC® HTB-22^TM) were cultured in DMEM medium. Adherent Caco-2 (human colorectal adenocarcinoma, ATCC® HTB-37^TM), HEK-293 (human embryonic epithelial cells, ATCC® CRL-1573^TM) and L-929 (mouse subcutaneous connective tissue fibroblast, ATCC® CCL-1^TM) cells were cultured in MEM medium. The media were supplemented with 10% (v/v) heat inactivated FBS, penicillin G (100 U/mL) and streptomycin ([…]), and cells were incubated at 37 °C in a 5% CO2 humidified incubator. The media were changed every 2–3 days and subcultured when the cell population density reached to 70%–80% confluence. Cells were seeded at an appropriate density according to each experimental design.
The antiproliferative activity of the synthesized compounds was assessed using the MTT cell viability assay. Briefly, 2 × 10^4 of the non-adherent K562 or THP-1 cells, in a 100 μL of RPMI-1640 medium, or […] of adherent HepG2, MCF-7, Caco-2, HEK-293 or L-929, in a same volume of the proper media, were seeded in each well of a 96 well-plate. After 24 h, the media was removed by aspiration and replaced by fresh media containing the test compound at varying concentrations (0.0 to 40.0 µM, for cancerous cells) or (0.0 to 80.0 µM, for noncancerous cells), and incubated for the desired time in a 5% CO2-cell culture incubator. Alternatively, cultured K562 cells were incubated with 12.0 µM of the test compound for different time-points (0, 2, 4, 8, 12, 24, 48 and 72 h) before analysis. […]

[2] = system: L-929 cells; test: MTT cell viability assay in noncancerous L-929 fibroblasts; format: cell-based; settings: Mus musculus, L929, 48 h incubation
Description: (§1) In addition to the effect on K562 cells, we have also evaluated the potential antiproliferative activities of compounds 3b and 3d on different hematological and solid tumor cell lines. […] To further characterize the cytotoxicity of compounds 3b and 3d, we evaluated their effects on inducing apoptosis of the cultured K562 cells (Figure 5).
(§2) Figure 4 Compounds 3b and 3d inhibit the growth of various hematological and solid tumor cell lines but not noncancerous cells at low IC50 values. […]
(§3) The antiproliferative activity of the synthesized compounds was assessed using the MTT cell viability assay. […] Absorbance was measured within 60 min at 595 nm using an E Max Precision Microplate reader (Molecular Devices, Sunnyvale, CA, USA). Cell viability at a given concentration was determined from the following expression: Percentage Viability = (Atest compound − Ablank/Acontrol − Ablank) × 100 (1) where Atest compound = absorbance of wells with cells exposed to test compound in media; Acontrol = absorbance of wells with cells in media and Ablank = absorbance of wells with DMSO only, without cells. […]

[3] = system: MCF-7 cells; test: MTT cell viability (antiproliferative) assay in MCF-7 cells; format: cell-based; settings: Homo sapiens, MCF7, 48 h incubation
Description: as §1, §2, §3

[4] = system: HepG2 cells; test: MTT cell viability (antiproliferative) assay in HepG2 cells; format: cell-based; settings: Homo sapiens, 48 h incubation
Description: as §1, §2, §3

[5] = system: THP-1 cells; test: MTT cell viability (antiproliferative) assay in THP-1 cells; format: cell-based; settings: Homo sapiens, 48 h incubation
Description: as §1, §2, §3

[6] = system: Caco-2 cells; test: MTT cell viability (antiproliferative) assay in Caco-2 cells; format: cell-based; settings: Homo sapiens, 48 h incubation
Description: as §1, §2, §3

[7] = system: HEK-293 cells; test: MTT cell viability assay in noncancerous HEK-293 cells; format: cell-based; settings: Homo sapiens, HEK293, 48 h incubation
Description: as §1, §2, §3

[8] = set-up: method as in PMID 16330129; settings: cited from earlier work

Compound: CCn1cc(C(=O)O)c(=O)c2c3c(ccc21)NC(=O)/C3=C1/C(=O)Nc2cc(Cl)ccc21 [3c, (E)-1-(6'-Chloro-2'-oxoindolin-3'-ylidene)-6-ethyl-2,3,6,9-tetrahydro-2,9-dioxo-1H-pyrrolo[3,2-f]quinoline-8-carboxylic acid]
cytotoxicity / antiproliferative activity to K562 cells (in words) [1]: significantly abolished the cytotoxicity
melting point: > 300 °C

Compound: CCn1cc(C(=O)O)c(=O)c2c3c(ccc21)NC(=O)/C3=C1/C(=O)Nc2ccccc21 [3a, (E)-6-Ethyl-2,9-dioxo-1-(2'-oxoindolin-3'-ylidene)-2,3,6,9-tetrahydro-1H-pyrrolo[3,2-f]quinoline-8-carboxylic acid]
cytotoxicity / antiproliferative activity to K562 cells (in words) [1]: significantly inhibited their antiproliferative activities
melting point: > 300 °C

Compound: CCn1cc(C(=O)O)c(=O)c2c3c(ccc21)NC(=O)/C3=C1/C(=O)Nc2ccc(Cl)cc21 [3b, (E)-1-(5'-Chloro-2'-oxoindolin-3'-ylidene)-6-ethyl-2,3,6,9-tetrahydro-2,9-dioxo-1H-pyrrolo[3,2-f]quinoline-8-carboxylic acid]
IC50 [2]: 40.4 ± 3.15 µM
IC50 [3]: 11.9 ± 0.67 µM
IC50 [4]: 8.97 ± 0.84 µM
IC50 [5]: 8.21 ± 0.62 µM
IC50 [6]: 14.6 ± 1.32 µM
IC50 [7]: 30.7 ± 2.52 µM
cytotoxicity / antiproliferative activity to K562 cells (in words) [1]: significant dose-dependent cytotoxicity
IC50 ([1]; K562, 24 h incubation): 15.1 ± 1.27 µM
IC50 ([1]; K562, 48 h incubation): 6.6 ± 0.58 µM
IC50 ([1]; K562, 72 h incubation): 4.02 ± 0.52 µM

Compound: CC(=O)OC1COC(N2C(=O)C(=C3C(=O)Nc4ccccc43)c3ccccc32)C(OC(C)=O)C1OC(C)=O [Natura^TM, 1-(β-D-triacetylxylopyranosyl) isoindigo]
solubility in water (in words) [8]: almost completely insoluble in water

The next lines start with results.

melting point: > 300 °C
Compound: CCn1cc(C(=O)O)c(=O)c2c3c(ccc21)NC(=O)/C3=C1/C(=O)Nc2cc(Br)ccc21 [3e, (E)-1-(6'-Bromo-2'-oxoindolin-3'-ylidene)-6-ethyl-2,3,6,9-tetrahydro-2,9-dioxo-1H-pyrrolo[3,2-f]quinoline-8-carboxylic acid]
cytotoxicity / antiproliferative activity to K562 cells (in words) [1]: significantly abolished the cytotoxicity

IC50 [3]: 15.7 ± 1.94 µM
IC50 [4]: 13.9 ± 2.01 µM
IC50 [5]: 9.1 ± 1 µM
IC50 [6]: 19 ± 1.37 µM
IC50 ([1]; K562, 24 h incubation): 19.1 ± 1.8 µM
IC50 ([1]; K562, 48 h incubation): 8.66 ± 0.81 µM
IC50 ([1]; K562, 72 h incubation): 6.92 ± 0.84 µM
Compound: CCn1cc(C(=O)O)c(=O)c2c3c(ccc21)NC(=O)/C3=C1/C(=O)Nc2ccc(Br)cc21 [3d, (E)-1-(5'-Bromo-2'-oxoindolin-3'-ylidene)-6-ethyl-2,3,6,9-tetrahydro-2,9-dioxo-1H-pyrrolo[3,2-f]quinoline-8-carboxylic acid]
IC50 [2]: 71.9 ± 5.22 µM
IC50 [7]: 52.5 ± 4.7 µM
cytotoxicity / antiproliferative activity to K562 cells (in words) [1]: significant dose-dependent cytotoxicity

melting point: > 300 °C
Compound: CCn1cc(C(=O)O)c(=O)c2c3c(ccc21)NC(=O)/C3=C1/C(=O)Nc2ccc([N+](=O)[O-])cc21 [3f, (E)-6-Ethyl-1-(5'-nitro-2'-oxoindolin-3'-ylidene)-2,9-dioxo-2,3,6,9-tetrahydro-1H-pyrrolo[3,2-f]quinoline-8-carboxylic acid]
cytotoxicity / antiproliferative activity to K562 cells (in words) [1]: significantly inhibited their antiproliferative activities
